# According to US20190343860A1 (Saint Louis University, priority 2016, published 2019):
# Experiments:
# [1] = Oxaliplatin-induced mechano-hypersensitivity (paw withdrawal threshold, von Frey); assay type: in vivo, rat; conditions: 0.1 mg/kg/d i.p. concomitant with oxaliplatin
# Excerpt: Mean±SEM, n=6/group, ANOVA with Bonferroni comparisons. *P<0.05 vs. day 0; #P<0.05 vs. vehicle &†P<0.05 vs. Oxaliplatin.
# [2] = test system: mitochondria in peripheral sensory afferents (PNSAs); test: Mitochondrial ATP production in peripheral sensory afferents after in vivo treatment; parameters: species or system rat; conditions: 0.1 mg/kg/d i.p. concomitant with oxaliplatin
# Description: ATP assays. Saphenous nerves were harvested from rats 25 days after the initiation of chemotherapy treatments, then minced & teased apart as previously described. Saphenous nerve explants were transferred to MiR05 respiratory buffer & baseline ATP samples were taken after 5 min or after 15 min treatment with MRS5980 or vehicle. ADP (1 mM), glutamate (5 mM), succinate (5 mM), maleate (5 mM) were added for 5 min & samples were taken for ATP. ATP levels were measured by a flash luciferin-luciferase assay (Promega Enliten ATP Assay; Promega, Madison, Wis.) & normalized to citrate synthase activity (Sigma, St Louis, Mo.) in explants homogenates.
# [3] = test system: intraepidermal nerve fibers (IENFs); test: Incidence of intraepidermal nerve fibers (IENFs) in chemotherapy-treated rats; conditions: p<0.05
smiles,measurement,setting,value
CNC(=O)[C@@]12C[C@@H]1[C@@H](n1cnc3c(NCc4cccc(Cl)c4)nc(C#Cc4ccc(F)c(F)c4)nc31)[C@H](O)[C@@H]2O [MRS5698],Development of mechano-hypersensitivity (Paw Withdrawal Threshold),[1],prevents
same,Mitochondrial ATP production in PNSAs,[2],prevents the deficiencies in mitochondrial ATP production
same,Incidence of IENFs vs. oxaliplatin alone,[3]; rats treated with oxaliplatin+MRS5698,significantly more IENFs
same,Incidence of IENFs vs. paclitaxel alone,[3]; rats treated with paclitaxel+MRS5698,significantly more IENFs
